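Test compounds were applied to cells in 96-well plates for 48 hours at 5 doses. GI50: concentration for 50% inhibition of growth.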 The source made the active and inactive calls. No stated cut-off is given here; in the data, active = GI50 up to about 1.1 µM and inactive = higher.

Among the test systems are EKVX; COLO 205; 786-0; M14; NCI-H522; HCT-116; MOLT-4; BT-549; TK-10; SN12C; HT-29; SK-MEL-28; CAKI-1; OVCAR-3; HCC 2998; Hs-578T; U-251; Malme-3M; SK-OV-3; SR.
Holding throughout (experiment): NCI tumour cell line growth inhibition, 48 h

In the case of `O=C(NCCCNC(=O)c1ccc2c(O)c(O)ccc2c1)c1ccc2c(O)c(O)ccc2c1`, the GI50 with EKVX is 32.4 µM (inactive); with COLO 205, 22.9 µM (inactive); with 786-0, 23.9 µM (inactive); with M14 it was 26.6 µM (inactive); in the test on NCI-H522 it was 23.8 µM (inactive); in the test with HCT-116, 32.3 µM (inactive). Besides, the GI50 is 20.4 µM (inactive) with MOLT-4; 18.7 µM (inactive) in the test on BT-549; 43.8 µM (inactive) with TK-10; 22.4 µM (inactive) in the test on SN12C; 26.2 µM (inactive) with HT-29; 97.9 µM (inactive) in the test with SK-MEL-28. In addition, the GI50 with CAKI-1 is > 63 µM (inactive); in the test on OVCAR-3, 22.8 µM (inactive); with HCC 2998 it was > 60.4 µM (inactive); in the test with Hs-578T, 18.5 µM (inactive); with U-251 it was 24.1 µM (inactive); in the test on Malme-3M, > 95.5 µM (inactive). Also, the GI50 in the test on SK-OV-3 is > 100 µM (inactive); in the test with SR, 15.1 µM (inactive).
Consider `COc1nc(OC)nc(-c2cccc(F)c2)n1`, for which the GI50 was 4.6 µM (inactive) in the test on EKVX; 15.4 µM (inactive) in the test on COLO 205; 19 µM (inactive) with 786-0; 18 µM (inactive) in the test with M14; 18.7 µM (inactive) in the test on NCI-H522; 16.7 µM (inactive) with HCT-116. Moreover, the GI50 in the test on MOLT-4 was 4.99 µM (inactive); in the test with BT-549, 14 µM (inactive); with TK-10 it was 18.3 µM (inactive); in the test on SN12C it was 16.2 µM (inactive); in the test on HT-29, 17.1 µM (inactive); with SK-MEL-28 it was 19 µM (inactive). The GI50 in the test with CAKI-1 was < 0.01 µM (active); in the test on OVCAR-3, 13.8 µM (inactive); in the test with HCC 2998, 13.4 µM (inactive); with Hs-578T, 32.1 µM (inactive); in the test with U-251 it was 15.7 µM (inactive); in the test on Malme-3M it was 15.2 µM (inactive). Moreover, the GI50 in the test with SK-OV-3 was 15.9 µM (inactive); with SR, 2.2 µM (inactive).
As to `CC(=O)/C=C(/C=N/O)c1ccccc1`, the GI50 in the test with EKVX, in the test with COLO 205, with 786-0, in the test on M14, with NCI-H522 and in the test with HCT-116 was > 100 µM (inactive) in each case. Moreover, the GI50 in the test on MOLT-4, in the test with BT-549, in the test on TK-10, in the test on SN12C, in the test with HT-29 and in the test on SK-MEL-28 was > 100 µM (inactive) throughout. Also, the GI50 with CAKI-1, in the test on OVCAR-3, in the test on HCC 2998, in the test on Hs-578T, with U-251 and in the test on Malme-3M was > 100 µM (inactive) throughout. In addition, the GI50 in the test on SK-OV-3 and in the test with SR was > 100 µM (inactive) each time.
Consider `CCCC(=O)Nc1ccc2c(c1)CN1C(=O)c3ccccc3C1=N2`, for which the GI50 with COLO 205, in the test with 786-0, in the test with M14, in the test on NCI-H522, with HCT-116 and with MOLT-4 was > 100 µM (inactive) throughout. Also, the GI50 with BT-549, with TK-10, with SN12C, in the test on HT-29, with SK-MEL-28 and with CAKI-1 was > 100 µM (inactive) each time. The GI50 in the test with OVCAR-3, in the test with HCC 2998, in the test with Hs-578T, in the test with U-251, with Malme-3M and in the test with SK-OV-3 was > 100 µM (inactive) in each case. In addition, the GI50 in the test on SR was > 100 µM (inactive).
Consider `CC1OC(OC2C(O)COC(OC3C(C)OC(OC4C(OC(=O)[C@]56CCC(C)(C)C[C@@H]5C5=CCC7[C@@]8(C)C[C@H](O)[C@H](OC9OC(CO)C(O)C(O)C9O)[C@@](C)(CO)[C@@H]8CC[C@@]7(C)[C@]5(C)CC6)OCC(O)C4O)C(O)C3O)C2O)C(O)C(O)C1O` (some centres not stated), for which the GI50 in the test with EKVX is 16.5 µM (inactive); with COLO 205, 14.9 µM (inactive); in the test with 786-0 it was 18.1 µM (inactive); in the test with M14 it was 22.8 µM (inactive); with NCI-H522 it was 46.6 µM (inactive); in the test with HCT-116, 25.8 µM (inactive). In addition, the GI50 with MOLT-4 is 19 µM (inactive); with BT-549, 24.1 µM (inactive); with TK-10, 17.1 µM (inactive); in the test on SN12C, 21.2 µM (inactive); in the test on HT-29 it was 21 µM (inactive); with SK-MEL-28, 15 µM (inactive). Besides, the GI50 in the test with CAKI-1 was 12.5 µM (inactive); in the test on OVCAR-3, 18.1 µM (inactive); in the test on HCC 2998, 18.5 µM (inactive); with Hs-578T, 32 µM (inactive); with U-251, 23.9 µM (inactive); in the test on Malme-3M, 33.4 µM (inactive). In addition, the GI50 in the test with SK-OV-3 was 19.8 µM (inactive); with SR, 21 µM (inactive).
Consider `CC(=O)C1=C(C)N(c2ccccc2)C2(O)C=CC(O)=C3C(=O)c4ccccc4C(=O)C312` (configuration not stated), for which the GI50 with EKVX was 18.2 µM (inactive); in the test on COLO 205, 6.18 µM (inactive); in the test with 786-0, 20 µM (inactive); in the test on M14, 20.3 µM (inactive); with NCI-H522 it was 16.3 µM (inactive); with HCT-116, 8.15 µM (inactive). The GI50 with MOLT-4 was 8.28 µM (inactive); with BT-549, 13.2 µM (inactive); with TK-10, 24.7 µM (inactive); with SN12C, 10.6 µM (inactive); in the test on HT-29 it was 4.7 µM (inactive); in the test with SK-MEL-28, 19 µM (inactive). Besides, the GI50 is 14.3 µM (inactive) in the test with CAKI-1; 3.52 µM (inactive) with OVCAR-3; 10.6 µM (inactive) with HCC 2998; 41.7 µM (inactive) in the test with Hs-578T; 18 µM (inactive) in the test on U-251; 0.748 µM (active) in the test with Malme-3M. Moreover, the GI50 in the test with SK-OV-3 is 48.4 µM (inactive); in the test with SR, 8.55 µM (inactive).
For `Cc1ccc(Nc2cc(=O)[nH]c(=S)[nH]2)cc1`, the GI50 with EKVX, in the test with COLO 205, in the test on 786-0, in the test on M14, in the test with NCI-H522 and with HCT-116 was > 100 µM (inactive) each time. Moreover, the GI50 in the test with MOLT-4, in the test with BT-549, in the test on TK-10, in the test with SN12C, in the test with HT-29 and in the test on CAKI-1 was > 100 µM (inactive) throughout. The GI50 with OVCAR-3, in the test on HCC 2998, in the test with Hs-578T, in the test on U-251, with Malme-3M and in the test with SK-OV-3 was > 100 µM (inactive) throughout. Further, in the test on SR, the GI50 is > 100 µM (inactive).
Turning to `O=C(O)Cn1ccc(=O)c2cc([N+](=O)[O-])ccc21`, the GI50 in the test on COLO 205 is 48.8 µM (inactive); in the test with 786-0, > 100 µM (inactive); with M14 it was > 100 µM (inactive); with NCI-H522 it was > 100 µM (inactive); in the test on HCT-116, > 100 µM (inactive); in the test on MOLT-4 it was > 100 µM (inactive). Also, the GI50 in the test with BT-549, with TK-10, in the test on SN12C, in the test on HT-29, in the test with SK-MEL-28 and in the test with CAKI-1 was > 100 µM (inactive) in each case. Also, the GI50 in the test with OVCAR-3, in the test with HCC 2998, in the test with Hs-578T, in the test with U-251, in the test with Malme-3M and in the test on SK-OV-3 was > 100 µM (inactive) in each case. In addition, the GI50 with SR is > 100 µM (inactive).
As to `Cc1csc2c1-n1cccc1C2=O`, the GI50 in the test on EKVX was 64.3 µM (inactive); in the test with COLO 205, > 100 µM (inactive); in the test with 786-0 it was > 100 µM (inactive); in the test with M14, > 100 µM (inactive); in the test on NCI-H522, > 100 µM (inactive); in the test on HCT-116, > 100 µM (inactive). For the same molecule, the GI50 with MOLT-4, with BT-549, in the test on TK-10, in the test on SN12C, with HT-29 and in the test on SK-MEL-28 was > 100 µM (inactive) throughout. Further, the GI50 with CAKI-1 is 65.8 µM (inactive); in the test with OVCAR-3, > 100 µM (inactive); in the test on HCC 2998, > 100 µM (inactive); in the test on Hs-578T, > 100 µM (inactive); with U-251, > 100 µM (inactive); in the test on Malme-3M it was > 100 µM (inactive). Further, the GI50 in the test with SK-OV-3 and in the test with SR was > 100 µM (inactive) each time.
For `Nc1nc(Cl)cc(Nc2ccc3c(c2)CCC3)n1`, the GI50 in the test with EKVX was 32.1 µM (inactive); in the test with COLO 205, 44.9 µM (inactive); in the test on 786-0, 52.2 µM (inactive); in the test with M14, > 100 µM (inactive); in the test with NCI-H522, 45.4 µM (inactive); in the test with HCT-116, 43.8 µM (inactive). In addition, the GI50 was 2.45 µM (inactive) in the test on MOLT-4; > 100 µM (inactive) in the test on BT-549; 65 µM (inactive) with TK-10; 80.2 µM (inactive) in the test with SN12C; 26.1 µM (inactive) with HT-29; > 100 µM (inactive) in the test with SK-MEL-28. Further, the GI50 in the test with CAKI-1 is 30.1 µM (inactive); with OVCAR-3, > 100 µM (inactive); in the test on HCC 2998, 65 µM (inactive); in the test on Hs-578T, > 100 µM (inactive); in the test with U-251, > 100 µM (inactive); in the test on Malme-3M it was > 100 µM (inactive). The GI50 with SK-OV-3 was > 100 µM (inactive); with SR, 17.4 µM (inactive).

The values above are taken from ChEMBL document CHEMBL1201862, “PubChem BioAssay data set” (2004).
